Results taken from patent US6677338B2, “Serotonin transport inhibitors” (President and Fellows of Harvard College, priority 1997, dated 2004).
“Also recorded” adds a separate entry of the source. Like-named read-outs stand apart in the source and are kept apart here.

Tests used:
human SERT [1] = biological target: T1, human SERT (Homo sapiens, UniProt P31645); experiment: (3H)citalopram binding in HEK-293 cells transfected with the human SERT
T1 construct: expressed in transfected cells; host or cells: HEK-293 (stably or transiently transfected, pcDNA3.1 vector)
T1 sequence (P31645 whole entry): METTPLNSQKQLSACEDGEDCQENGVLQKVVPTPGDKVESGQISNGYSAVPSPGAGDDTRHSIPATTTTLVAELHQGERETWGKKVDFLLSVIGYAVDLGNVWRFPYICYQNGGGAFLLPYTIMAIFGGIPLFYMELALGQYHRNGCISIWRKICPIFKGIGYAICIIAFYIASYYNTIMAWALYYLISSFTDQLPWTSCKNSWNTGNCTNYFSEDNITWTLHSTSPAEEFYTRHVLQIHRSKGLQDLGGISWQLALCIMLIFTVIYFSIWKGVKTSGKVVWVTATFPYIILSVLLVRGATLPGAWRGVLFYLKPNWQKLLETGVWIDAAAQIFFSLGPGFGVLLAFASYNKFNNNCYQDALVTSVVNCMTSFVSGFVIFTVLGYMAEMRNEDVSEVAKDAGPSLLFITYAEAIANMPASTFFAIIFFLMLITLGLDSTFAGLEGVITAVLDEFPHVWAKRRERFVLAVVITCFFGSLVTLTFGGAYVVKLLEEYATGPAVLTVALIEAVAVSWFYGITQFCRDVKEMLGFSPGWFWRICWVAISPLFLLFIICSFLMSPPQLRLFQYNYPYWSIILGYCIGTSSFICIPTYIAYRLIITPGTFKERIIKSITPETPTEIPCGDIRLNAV

human SERT [2] = biological target: T1, human SERT; experiment: (3H)serotonin transport in HEK-293 cells transfected with the human SERT; assay type: cell-based; settings: for blocked (3H)serotonin transport (in words): comparable to imipramine, fluoxetine and amitriptyline
[3] = biological target: T2, Serotonin transporter (SERT) (Macaca mulatta, UniProt Q9MYX0); experiment: (3H)citalopram competition binding in monkey striatum homogenates; settings: for SERT/DAT Selectivity: fold selectivity for serotonin over dopamine transporter
T2 construct: in monkey striatum homogenates; from tissue; host or cells: monkey striatum homogenate
T2 sequence (Q9MYX0 whole entry): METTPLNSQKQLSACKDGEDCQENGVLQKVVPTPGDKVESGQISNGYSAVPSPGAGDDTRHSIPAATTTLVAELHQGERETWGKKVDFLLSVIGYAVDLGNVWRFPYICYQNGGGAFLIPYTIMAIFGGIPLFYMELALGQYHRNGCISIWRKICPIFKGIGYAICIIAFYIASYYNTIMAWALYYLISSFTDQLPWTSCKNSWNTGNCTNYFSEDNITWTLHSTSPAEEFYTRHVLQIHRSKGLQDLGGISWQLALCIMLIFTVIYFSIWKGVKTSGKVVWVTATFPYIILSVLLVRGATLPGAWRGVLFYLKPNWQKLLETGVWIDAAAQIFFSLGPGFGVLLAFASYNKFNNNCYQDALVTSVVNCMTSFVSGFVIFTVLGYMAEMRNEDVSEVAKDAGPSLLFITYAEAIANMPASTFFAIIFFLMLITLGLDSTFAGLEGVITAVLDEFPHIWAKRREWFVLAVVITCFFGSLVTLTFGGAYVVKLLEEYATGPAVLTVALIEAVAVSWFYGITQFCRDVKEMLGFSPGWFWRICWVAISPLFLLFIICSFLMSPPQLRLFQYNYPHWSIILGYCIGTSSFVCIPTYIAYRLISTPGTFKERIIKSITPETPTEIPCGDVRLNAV
Description: Initial screening procedures for non-amines were conducted in primate striatum, a standard source of brain transporters for drug screening and for generating structure-activity relationships for this series (Table 1). […] The binding experiments were terminated by rapid filtration and radioactivity measured as described above. […] The experiments were performed in triplicate and each value is the mean ±S.E. of 2-5 independent experiments.
(§1) Values were determined by fitting data to the equation for competitive binding with EBDA computer program. Data represent the mean ±S.D. of two or more experiments.

[4] = biological target: T3, Dopamine transporter (DAT) (Macaca fascicularis, UniProt Q9GJT6); experiment: (3H)CFT competition binding in monkey striatum homogenates
T3 construct: in monkey striatum homogenates; from tissue; host or cells: monkey striatum homogenate
T3 sequence (Q9GJT6 whole entry): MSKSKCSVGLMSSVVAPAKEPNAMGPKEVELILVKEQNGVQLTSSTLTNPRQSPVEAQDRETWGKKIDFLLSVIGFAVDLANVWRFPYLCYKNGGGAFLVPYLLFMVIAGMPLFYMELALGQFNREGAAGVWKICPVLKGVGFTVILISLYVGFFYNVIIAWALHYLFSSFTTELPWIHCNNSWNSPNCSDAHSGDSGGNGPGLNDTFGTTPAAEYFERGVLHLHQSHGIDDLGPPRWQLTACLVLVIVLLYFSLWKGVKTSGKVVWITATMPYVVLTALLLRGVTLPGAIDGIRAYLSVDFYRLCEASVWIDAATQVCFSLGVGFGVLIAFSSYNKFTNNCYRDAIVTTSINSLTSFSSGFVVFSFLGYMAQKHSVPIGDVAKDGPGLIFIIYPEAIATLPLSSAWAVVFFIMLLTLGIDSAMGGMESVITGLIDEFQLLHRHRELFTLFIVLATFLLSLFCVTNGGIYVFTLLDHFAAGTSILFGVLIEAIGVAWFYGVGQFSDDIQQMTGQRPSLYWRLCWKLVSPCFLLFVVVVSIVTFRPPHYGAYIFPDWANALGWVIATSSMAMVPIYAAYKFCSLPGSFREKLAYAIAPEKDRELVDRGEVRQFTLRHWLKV
Description: as §1

[5] = (3H)serotonin transport Ki, HEK-293 cells with human SERT, 20 nM (3H)serotonin, mean ± S.E.M.
[6] = monkey striatum, 1 nM (3H)CFT, mean ± S.D., read-out: Dopamine transporter (DAT) IC50
[7] = HEK-293 cells with human SERT, 1 nM (3H)citalopram, mean ± S.E.M., read-out: (3H)citalopram binding Ki

| SMILES | Ki (human SERT [1]) [nM] | Ki (human SERT [2]; [5]) [nM] | blocked (3H)serotonin transport (in words) (human SERT [2]) | IC50 [3] [nM] | selectivity for the serotonin over the dopamine transporter (in words) ([3]; monkey striatum) | reduction of potency for the SERT on substitution of the 8-oxa with an 8-carba ([3]; monkey striatum, O-1391 versus O-1072) [fold] | SERT/DAT Selectivity ([3]; monkey striatum) | IC50 [4, 6] [nM] | melting point [°C] | IC50 [4] [nM] | Ki (human SERT [1]; [7]) [nM] | Ki (human SERT [2]) [nM] | Ki (human SERT [2]; HEK-293 cells with human SERT, 20 nM (3H)serotonin, mean ± S.E.M., read-out: (3H)serotonin transport Ki) [nM] |
| --- | --- | --- | --- | --- | --- | --- | --- | --- | --- | --- | --- | --- | --- |
| COC(=O)[C@@H]1[C@H]2CC[C@H](C2)C[C@@H]1c1ccc(Cl)c(Cl)c1 (racemic) [Compound O-1391, 2-β-carbomethoxy-3-β-(3,4-dichlorophenyl)bicyclo(3.2.1)octane] | 10 ± 4.3 | 11.1 ± 7.44 | low nanomolar range | 33.9 ± 1.85 | relatively non-selective | 7 | 0.4 | 13.5 ± 0.9 |  |  |  |  |  |
| C=C(C)c1ccc(C2CC3CCC(O3)C2C(=O)OC)cc1 (racemic) [Compound O-1739, 2β-carbomethoxy-3β-(4-isopropenylphenyl)-8-oxabicyclo(3.2.1)octane] | 17.7 ± 6.3 | 33 ± 2 | low nanomolar range | 19.8 ± 0.75 |  |  | 52 | 1020 | 72.3 to 73.3 |  |  |  |  |
| COC(=O)[C@H]1[C@@H](c2ccc(Cl)c(Cl)c2)C[C@@H]2CC[C@H]1O2 (relative stereo) [Compound O-1072, 2-β-carbomethoxy-3-β-(3,4-dichlorophenyl)-8-oxabicyclo(3.2.1)octane] |  | 10 to 20 | low nanomolar range | 4.66 ± 1.24 | relatively non-selective |  | 0.8 |  |  | 3.88 ± 0.93 |  |  |  |
| COC(=O)[C@H]1[C@@H](c2ccc3ccccc3c2)C[C@@H]2CC[C@H]1N2C (relative stereo) [Compound O-1229, N-methyl-2β-carbomethoxy-3β(2′-naphthyl)-8-azabicyclo(3.2.1)octane] | 1.42 ± 0.78 | 0.14 ± 0.07 |  | 2.19 ± 0.18 |  |  | 0.2 |  |  | 0.49 ± 0.04 |  |  |  |
| CC#Cc1ccc([C@H]2C[C@@H]3CC[C@@H](O3)[C@H]2C(=O)OC)cc1 (relative stereo) [Compound O-1577] | 32.6 ± 7.88 | 63 ± 16.8 |  | 72.4 | modest |  | 8 | 545 ± 76 | 142 to 143 |  |  |  |  |
| CC#Cc1ccc([C@@H]2C[C@@H]3CC[C@@H](O3)[C@H]2C(=O)OC)cc1 (relative stereo) [Compound O-1585, 2β-carbomethoxy-3α-(4′-propynylphenyl)-8-oxabicyclo(3.2.1)octane] | 76.1 ± 10.5 | 56.7 ± 10.4 |  | 152 ± 26.5 | moderately selective; also recorded: modest |  | 3 | 446 ± 94 |  |  |  |  |  |
| COC(=O)[C@@H]1[C@H]2CC[C@H](C2)C[C@@H]1c1ccc2ccccc2c1 (relative stereo) [Compound O-1669, 2β-carbomethoxy-3β-(2-naphthyl)-8-bicyclo(3.2.1)octane] | 289 ± 150 | 28 ± 2 | low nanomolar range | 72.5 ± 12.6 | relatively non-selective |  | 0.4 |  |  | 27.1 ± 0.1 |  |  |  |
| COC(=O)[C@@H]1[C@H]2CC[C@H](C2)C[C@H]1c1ccc2ccccc2c1 (relative stereo) [Compound O-1670, 2β-carbomethoxy-3α-(2-naphthyl)-8-bicyclo(3.2.1)octane] |  |  |  | 77.7 ± 13.5 | relatively non-selective |  | 0.3 |  |  | 21.2 ± 4.1 | 303 ± 8.7 | 425 ± 332 |  |
| C=C(C)c1ccc([C@@H]2C[C@@H]3CC[C@@H](O3)[C@H]2C(=O)OC)cc1 (relative stereo) [Compound O-1738, 2β-carbomethoxy-3α-(4-isopropenylphenyl)-8-oxabicyclo(3.2.1)octane] | 218 ± 45.1 | 376 ± 74 |  | 158 ± 23 | moderately selective |  | 6 | 912 ± 100 |  |  |  |  |  |
| C=C(C)c1ccc(C2CC3CCC(O3)C2C(=O)OC)cc1 (single isomer, unassigned) [Compound O-1809, 2β-carbomethoxy-3β-(4-isopropenylphenyl)-8-oxabicyclo(3.2.1)octane] | 9.6 ± 1.3 | 16 ± 4 | low nanomolar range | 10.2 ± 2.1 |  |  | 99 | 1010 |  |  |  |  |  |
| COC(=O)C1C(c2ccc3ccccc3c2)CC2CCC1N2C (stereo not drawn) [Compound O-1228, N-methyl-2β-carbomethoxy-3-(2′-naphthyl)-8-azabicyclo(3.2.1)octane] |  |  |  |  |  |  |  | 0.57 ± 0.34 |  |  | 3.26 ± 0.26 |  | 4.57 ± 0.37 |
